We go through three substances from US8993721B2, “Peptides for targeting apoptotic cells and uses thereof” (Kyungpook National University Industry-Academic Cooperation …, priority 2008, dated 2015).

The subject of data set [1] is apoptotic cells in A549 tumor tissue xenotransplanted under the skin of nude mouse. Description: Histological analysis of tumor targeting (Example 2). Format: in vivo. The following applies: fluorescein-labeled peptide, tail vein, 50 μM final, 2 hours circulation; cryosections. How it is done: All animal experiments were performed in accordance with the guideline of the Institutional Animal Care and Use Committee. For tumor xenotransplantation, human lung cancer cells (A549, 1×10^7 cells) suspended in RMPI-1640 medium was subcutaneously injected at the right upper or lower limb of a 6-week-old male BALB/c nude mouse (Hyochang Science). Then, 3 weeks were given for the tumor to grow to a size of 0.5 to 1 cm. The A549 cell line used in the experiment was cultured in RMPI-1640 medium containing 10% fetal bovine serum (FBS) in which antibiotics (penicillin and streptomycin) were included. Subculturing was performed every 3 or 4 days.
The peptides used in the present invention were fluorescein-attached form at the N-terminal. They were synthesized according to the standard Fmoc technique and then isolated through HPLC. The peptide synthesis was performed by an expertise company (Peptron).
The peptide of the present invention (ApoPep-1) or a control peptide (amino acid sequence: NSSSVDK), labeled with fluorescein, was injected into the tail vein of a mouse under isoflurane anesthesia, to a final concentration of 50 μM, and 2 hours was given for circulation.
For histological analysis, the mouse was anesthetized and the abdomen was cut open. After sequentially perfusing phosphate-buffered saline (PBS) and 4% paraformaldehyde through the heart, tumor tissues and organs were removed. Each tissue was cryosected and the peptide of the present invention was observed under a fluorescence microscope (Zeiss). Apoptosis in the tumor tissue was confirmed by TUNEL ([…] terminal deoxynucleotidyl transferase-mediated dUTP nick-end labeling) assay according to the instructions of the manufacturer (Chemicon). Fibrinogen staining was performed by immunohistochemistry using anti-fibrinogen antibody (Abcam) and secondary antibody labeled with Alexa 568, a red fluorescent reagent.

In data set [2] the test system is etoposide-treated apoptotic A549 cells. Description: FACS analysis of binding to apoptotic cells (Example 3-3). Type of data set: cell-based, human. How it is done:
As another way of confirming the binding of the peptide of the present invention to apoptotic cells, apoptotic cells were treated with the peptide of the present invention, labeled with fluorescein, and the binding was confirmed through FACS analysis. […] The apoptotic cells or normal cells were reacted with ApoPep-1 (5 μM), ApoPep-2 (10 μM) or a control peptide at the same concentrations, labeled with fluorescein, at 4° C. for 1 hour. Further, the cells were reacted with fluorescein-labeled annexin V at room temperature for 15 minutes. After staining the cells with propodium iodide (PI) simultaneously, followed by washing with PBS, FACS analysis was performed using a FACS instrument (Becton Dickinson).
(In general: Flow cytometry measures light scatter and fluorescence of single cells or particles in a stream.)

The test system of data set [3] is A549 tumor xenotransplanted in nude mice. Description: In vivo fluorescence imaging of targeting of apoptotic cells in tumor (Example 4-1). Details: species or system mouse. The note with it: +Dox (10 mg/kg, 3 times); fluorescein-labeled peptide 50 μM. How it is done:
Nude mice in which tumor was xenotransplanted using A549 cells were prepared as in Example <2-1>. The mice were grouped into a doxorubicin (Sigma) treated group (+Dox) and untreated group (−Dox). The treated group was treated with doxorubicin (10 mg/kg) 3 times, with an interval of 48 hours, a week prior to injection of the peptide. At the tail vein of each mouse, the peptide of the present invention or a control peptide, labeled with fluorescein, was injected at a final concentration of 50 μM, under isoflurane anesthesia. Following the injection, in vivo fluorescence images were obtained every hour, from 1 hour to 6 hours after the injection, using an Optix exPlore instrument (GE Healthcare). The images were standardized using the software provided with the instrument.
Further, when the tumor grew considerably (1 cm or larger in diameter), the peptide of the present invention was injected at the same concentration as above, without doxorubicin treatment, and in vivo fluorescence images were obtained at every given time using an IVIS fluorescence imaging system (Chemipro).

The test system of data set [4] is brain of stroke rat (middle cerebral artery occlusion/reperfusion). Description: Molecular imaging of stroke (Example 6). The note with it: Cy7.5-labeled peptide 50 μM i.v.; one and three hours. Type of data set: in vivo. How it is done:
A stroke model was established by occluding the left middle cerebral artery of a rat for 2 hours, followed by reperfusion. Two hours after the reperfusion, the peptide having an amino sequence represented by SEQ ID NO: 1 (ApoPep-1) and a control peptide, labeled with Cy7.5 NIR fluorescence, was intravenously injected at a final concentration of 50 μM to the stroke rat and a normal rat through the tail vein, under isoflurane anesthesia. One and three hours after the intravenous injection, NIR images of the head portion were obtained. Further, NIR fluorescence images of the brains of the rats of the 3 hour group were obtained.

The test system of data set [5] is etoposide-treated apoptotic A549 cells. Description: FACS analysis of binding to apoptotic cells (Example 9-3). Format: cell-based, human. How it is done: As another way of confirming the binding of the polypeptide of the present invention (ApoPep-2) to apoptotic cells, apoptotic cells were treated with the peptide, labeled with fluorescein, and the binding was confirmed through FACS analysis. First, apoptosis was induced by treating A549 cells with 50 μM etoposide for 20 hours. The apoptotic cells or normal cells were reacted with ApoPep-2 (10 μM) or a control peptide at the same concentration, labeled with fluorescein, at 4° C. or 37° C. for 1 hour. Further, the cells were reacted with fluorescein-labeled annexin V at room temperature for 15 minutes. After washing cells with PBS, FACS analysis was performed using a FACS instrument (Becton Dickinson).

For data set [6], the system named is A549 tumor xenotransplanted in nude mice. Description: In vivo fluorescence imaging of targeting of apoptotic cells in tumor (Example 10). Details: species or system mouse. How it is done: Nude mice in which tumor was xenotransplanted using A549 cells were prepared as in Example <8-1>. The mice were grouped into a doxorubicin (Sigma) treated group (Dox+) and untreated group (Dox−). The treated group was treated with doxorubicin (5 mg/kg) one time, 12 hours prior to injection of the peptide. At the tail vein of each mouse, the polypeptide of the present invention or a control peptide, labeled with fluorescein or Cy7.5 near-infrared fluorescent dye, was injected at a final concentration of 50 μM, under isoflurane anesthesia. Following the injection, in vivo fluorescence images were obtained 0.5 hours and every hour, from 1 hour to 4 hours, after the injection, using an Optix exPlore instrument (ART). The images were standardized using the software provided with the instrument.

Data set [7] concerns etoposide-treated apoptotic cells (A549, H460, HeLa, L132, RAW). Description: Microscopic observation of binding of the peptide to apoptotic cells (Example 3-1). Type of data set: cell-based. The note with it: 10 μM fluorescein-labeled peptide 4° C. 1 hour. How it is done:
Cells were cultured in chamber slide (Nalgene Nunc) and treated with 50 μM etoposide (Sigma) for a given period of time (A549 and HeLa cells: for 15 hours, H460 cells: 24 hours, L132 cells: 3 hours, RAW cells: 6 hours) to induce apoptosis. The cells were cultured in RMPI-1640 medium (A549 and H460 cells) or DMEM (HeLa, L132 and RAW cells) containing antibiotics (penicillin and streptomycin) and 10% FBS. All the cells were subcultured every 3 or 4 days. The apoptosis-induced apoptotic cells were washed with PBS and blocked with 1% BSA at 37° C. for 30 minutes. Then, the cells were reacted with 10 μM of the peptide labeled with fluorescein, at 4° C. for 1 hour. After washing, the cells were reacted with an annexin V reaction buffer containing Alexa594-labeled annexin V (Molecular Probes), at room temperature for 15 minutes. The cells were washed with PBS and then fixed with 4% paraformaldehyde for 5 minutes. Thereafter, after counterstaining using the nuclear stain 4′,6-diamidino-2-phenylindole (DAPI), followed by treatment with a mounting solution (Molecular Probes), images of the cells were obtained under a fluorescence microscope (Zeiss).

Data set [8] has as its system apoptotic A549 cells. Description: Competitive inhibition of binding to apoptotic cells by annexin V treatment (Example 3-2). Format: cell-based, human. The following applies: pre-treatment at 0, 200 and 1000 μM; high concentration. How it is done: In order to further investigate the binding properties of the peptide of the present invention (ApoPep-1) to apoptotic cells, competitive inhibition by annexin V was measured. To this end, first, apoptotic A549 cells were pre-treated with annexin V, not labeled with fluorescence, at concentrations of 0, 200 and […]. Then, after reacting the cells with fluorescence-labeled annexin V under the same condition as described in Example <3-1>, the binding of the cells was observed under a fluorescence microscope.
Further, apoptotic A549 cells were pre-treated with annexin V, not labeled with fluorescence, at a concentration of 1000 μM. Then, after reacting the cells with fluorescence-labeled peptide under the same condition as described in Example <3-1>, the binding of the cells was observed under a fluorescence microscope.

The test system of data set [9] is etoposide-treated apoptotic A549 cells. Description: Microscopic observation of binding of the peptide to apoptotic cells, A549 (Example 9-1). Format: cell-based, human. The note with it: Alexa594-annexin V. How it is done: (§1) Cells were cultured in chamber slide (Nunc) and treated with 50 μM etoposide (Sigma) for 16 hours (A549 cells) or 50 ng/ml trail (R&D Systems) for 16 hours (MDA-MB231 cells) to induce apoptosis. The cells were cultured in RMPI-1640 medium (A549 cells) or DMEM-High (MDA-MB231 cells) containing antibiotics (penicillin and streptomycin) and 10% FBS. All the cells were sub-cultured every 3 or 4 days. The apoptosis-induced apoptotic cells were washed with PBS and blocked with 1% BSA at 37° C. for 30 minutes. Then, the cells were reacted with 10 μM of the peptide labeled with fluorescein, at 4° C. for 1 hour. After washing, the cells were reacted with an annexin V reaction buffer containing Alexa594-labeled annexin V (Invitrogen) at room temperature for 15 minutes. The cells were washed with PBS and then fixed with 4% paraformaldehyde for 5 minutes. After treatment with a mounting solution containing the DAPI nuclear stain, images of the cells were obtained under a fluorescence microscope.

The test system of data set [10] is trail-treated apoptotic MDA-MB231 cells. Description: Microscopic observation of binding of the peptide to apoptotic cells, MDA-MB231 (Example 9-1). Format: cell-based. The note with it: Alexa594-annexin V. How it is done:
as §1

The test system of data set [11] is apoptotic A549 cells. Description: Competitive inhibition of binding to apoptotic cells by annexin V treatment (Example 9-2). Format: cell-based, human. The note with it: pre-treatment at 0, 500 and 1000 μM; high concentration. How it is done: In order to further investigate the binding properties of the polypeptide of the present invention (ApoPep-2) to apoptotic cells, competitive inhibition by annexin V was measured. To this end, first, apoptotic A549 cells were pre-treated with annexin V, not labeled with fluorescence, at concentrations of 0, 500 and 1000 μM. Then, after reacting the cells with fluorescence-labeled annexin V under the same condition as described in Example <9-1>, the binding of the cells was observed under a fluorescence microscope.
Further, apoptotic A549 cells were pre-treated with annexin V, not labeled with fluorescence, at a concentration of 1000 μM. Then, after reacting the cells with fluorescence-labeled peptide under the same condition as described in Example <9-1>, the binding of the cells was observed under a fluorescence microscope.

In data set [12] the test system is H460 tumor xenotransplanted in nude mice. Description: Radionuclide (micro PET) imaging of targeting of apoptotic cells in tumor (Example 4-2). Format: in vivo, mouse. The following applies: 1 hour after injection. How it is done: Nude mice in which tumor was xenotransplanted using H460 cells were prepared as in Example <2-1>. The mice were grouped into a doxorubicin (Sigma) treated group and untreated group. The treated group was treated with doxorubicin (10 mg/kg) 3 times, with an interval of 48 hours, a week prior to injection of the peptide. The peptide of the present invention (ApoPep-1), labeled with the radioactive isotope ^124I, was injected through the tail vein of each mouse under isoflurane anesthesia (treated group: 91 μCi; untreated group: 93 μCi). Further, ^18F-labeled FDG, which is frequently used for PET, was injected to the doxorubicin treated group and untreated group, at 300 μCi and 304 μCi, respectively. Radionuclide images were obtained using a micro PET instrument (Concorde MicroSystems) 5 hours after the injection of [^124I]ApoPep-1 and 1 hour after the injection of [^18F]FDG.

[13] abbreviates: etoposide 15 hours, fluorescein-annexin V room temperature 15 minutes, PI.

Entries after “also recorded” stand apart in the source; their conditions may differ.

“NSSSVDK [control peptide, reference compound]”: in data set [1], the “peptide fluorescence observed in the tumor tissue” value is on record as “hardly observed”. The “binding to apoptotic cells (FACS)” value in data set [2] (etoposide-treated A549 cells, 4° C. 1 hour) is “almost nonexistent”; in data set [5] (etoposide-treated A549, 10 μM, 4° C. or 37° C.), “almost nonexistent or minimal”. In addition, the “fluorescence signal from the tumor, doxorubicin treated group” value in data set [3] is “weakly detected or almost nonexistent”; in [6] (Dox+, Cy7.5-labeled peptide 50 μM) it was “targeting was not observed; also recorded: weakly detected”. Moreover, the “NIR fluorescence at the head portion of the stroke rat” value in data set [4] is “almost nonexistent”. Moreover, the “ex vivo fluorescence signal from the kidney” value in [6] (4 hours after peptide injection, all the groups, renal clearance) is recorded as “strong”.

With “annexin V: 36 kDa protein that binds to phosphatidylserine; used to detect apoptotic cells [reference compound]”, the “labeling of normal cells not treated with etoposide” value in data set [7] (Alexa594-annexin V) is reported as “no labeling was observed”. In addition, the “labeling of etoposide-treated apoptotic cells (fluorescence microscopy)” value in data set [7] (50 μM etoposide, Alexa594-annexin V room temperature 15 minutes) is given as “labeling was observed”. Besides, in [8], the “fluorescence of labeled annexin V after pre-treatment with unlabeled annexin V” value is recorded as “decreased significantly”. Besides, in data set [2] (setting [13]), the “percentage of the cells stained by both annexin V and PI (fraction Q2, later stage of apoptosis)” value was found to be 9.4%; the “percentage of the cells stained only by annexin V (fraction Q4, early stage of apoptosis)” value worked out at 64.3%. Also, the “labeling of A549 cells not treated with etoposide” value in [9] (10 μM peptide 4° C. 1 hour) is reported as “no labeling was observed”. Further, the “labeling of etoposide-treated apoptotic A549 cells” value in data set [9] (50 μM etoposide 16 hours, 10 μM fluorescein-labeled peptide 4° C. 1 hour) is “labeling was observed”. Moreover, the “labeling of trail-treated apoptotic MDA-MB231 cells” value in [10] (50 ng/ml trail 16 hours, 10 μM fluorescein-labeled peptide 4° C. 1 hour) is listed as “labeling was observed”. The “labeling of MDA-MB231 cells not treated with trail” value in data set [10] (10 μM peptide 4° C. 1 hour) was “no labeling was observed”. In addition, the “fluorescence of labeled annexin V after pre-treatment with unlabeled annexin V” value in data set [11] is “decreased significantly”. The “percentage of the cells stained by annexin V” value in [5] (etoposide 20 hours, fluorescein-annexin V room temperature 15 minutes) was found to be 61%.

In the case of fluorodeoxyglucose [[^18F]FDG], in data set [12], the “PET signal at the tumor site, doxorubicin treated group compared with untreated group” value was “weaker signal”.
